According to patent US20260206786A1, “PROCEDURE FOR PREPARING COMPOSITIONS WITH A HIGH CONTENT OF BIOACTIVE COMPOUNDS” (I.T.P. S.R.L. INNOVATION & TECHNOLOGY PROVIDER, priority 2022, published 2026):
Read-outs that look alike come from different tables or passages of the source.

Assays:
[1] = Concentration of bioactive compound in oil enriched by the process of the invention; format: physicochemical
Procedure: (§1) Spectrophotometric analyses were performed using an ONDA UV/VIS Spectrophotometer, Model UV-31 SCAN. The oil samples were suitably diluted in RPE ethanol supplied by Carlo Erba. Scans were performed in the wavelength range of 600 nm and 300 nm, with a step size of 1 nm, using optical glass cuvettes.
(§2) HPLC analyses were performed using an Agilent HPLC Chromatograph, 1100 Series, equipped with an Agilent Technologies 1200 Series DAD UV/VIS detector, using an Agilent Eclipse plus 95 Å C18 Column, (100 mm—4.6 mm, 3.5 μm). Acetonitrile, Methanol, Water and Formic Acid for HPLC supplied by Sigma-Aldrich were used for the mobile phase.
At the end of the process, 5 mL of enriched oil was recovered with a concentration expressed as mass of lycopene per mass of oil of 35 mg/100 g, a concentration measured at 25° C. after centrifuging the oil for 15 minutes at 10,000 RPM.

[2] = Comparison of process of the invention with maceration in oil, UV/VIS spectra; format: physicochemical
Procedure: as §1
(§3) In order to compare the efficacy of the method of the invention with the traditional method of enrichment by maceration in oil, enrichment of vegetable oils was carried out using both methods. Subsequently, equal amounts of oil obtained using the two methods were solubilised in a suitable solvent, respecting the same dilution ratio, and the resulting solutions were subjected to chromatographic and spectrophotometric analysis.

[3] = traditional preparation techniques, literature, cited from earlier work
[4] = Comparison of process of the invention with maceration in oil, HPLC chromatograms; format: physicochemical; conditions: Argan oil; Example 1 versus maceration of pure lycopene powder in oil
Procedure: as §2, §3

| concentration expressed as mass of Curcumin on mass of oil ([1]; wheat germ oil enriched per Example 2 (R1234ze, 28° C., 4.5 atm, 355 minutes), measured at 25° C. after centrifugation 15 minutes at 10,000 RPM) [mg/100 g] | concentration expressed as mass of Capsaicin on mass of oil ([1]; deodorised sunflower oil enriched per Example 3 (R134a, 35° C., 7.66 atm, 90 minutes), measured at 25° C. after centrifugation 15 minutes at 10,000 RPM) [mg/100 g] | capsaicin concentration (absorbance at 280 nm), innovative methodology versus traditional methodology ([2]; sunflower oil, Example 3 versus maceration) | concentration expressed as mass of lycopene per mass of oil ([1]; refined argan oil enriched per Example 1 (R1234ze, 28° C., 4.5 atm, 120 minutes), measured at 25° C. after centrifuging 15 minutes at 10,000 RPM) [mg/100 g] | lycopene concentration (HPLC peak area), process of the invention versus conventional method [4] | lycopene concentration (absorbance at 502 nm), process of the invention versus traditional methodology ([2]; Argan oil, Example 1 versus maceration of pure lycopene powder in oil) | Structure (SMILES) | maximum concentration in vegetable oil ([3]; listed as capsicin) | maximum concentration in vegetable oil [3] |
| --- | --- | --- | --- | --- | --- | --- | --- | --- |
| 1420 | – | – | – | – | – | COc1cc(/C=C/C(=O)CC(=O)/C=C/c2ccc(O)c(OC)c2)ccc1O [curcumin] | – | – |
| – | 61.2 | approximately 6 times | – | – | – | COc1cc(CNC(=O)CCCC/C=C/C(C)C)ccc1O [capsaicin] | ≤ 10 mg per 100 g of oil | no more than 10 mg per 100 g of oil |
| – | – | – | 35 | about 3.3 times | approximately 3.3 times | CC(C)=CCC/C(C)=C/C=C/C(C)=C/C=C/C(C)=C/C=C/C=C(C)/C=C/C=C(C)/C=C/C=C(\C)CCC=C(C)C [lycopene] | – | 7-8 mg per 100 g of oil |
